Results from patent publication US10617654B2, “Use of fenoterol and fenoterol analogues in the treatment of glioblastomas and astrocytomas” (priority 2010, dated 2020).
Several values for one entry are separate records, joined by “and”; a condition that tells them apart may be missing. Identical values can stand only once. Like-named read-outs stand apart in the source and are kept apart here.

What was measured:
[1] = tested on: 1321N1 cells; test: Cell cycle distribution by flow cytometry in 1321N1 cells; format: cell-based, human
Excerpt: Untreated cells were used as controls.

[2] = tested on: p27, phospho-Akt, cyclin D1, cyclin A, ERK1/2 in 1321N1 cells; test: Western blot analysis of G1 arrest proteins in 1321N1 cells; format: cell-based, human
Excerpt: The ECL Plus Western Blotting Detection System of Amersham Biosciences (Piscataway, N.J.) and the procedure recommended by the manufacturer were used for the detection of antigens. Protein bands were quantified by analyzing the images obtained using an Alphaimager™ S-3400 (Alpha Innotech Corp., San Leandro, Calif.).

[3] = for Individual plasma concentration: individual rat; for Individual plasma concentration / Plasma concentration, Average / systemic exposure (AUC) compared to (R,R)-fenoterol: 5 mg/kg IV; for Plasma concentration, Average / A (zero time intercept, alpha phase) / AUC / B (zero time intercept, beta phase) / Cl / T1/2 (K10) / Vss / systemic exposure (AUC) compared to (R,R)-fenoterol: rats; for A (zero time intercept, alpha phase) / AUC / B (zero time intercept, beta phase) / Cl / T1/2 (K10) / Vss: 5 mg/kg intravenous, two-compartment open model
Description: Dose calculations (mg/kg) were based on the individual body weight measured on the day of treatment. Study duration for pharmacokinetic studies was 6 hours. […] Urine was collected for 0-6 hours and 6 to 24 hours from 3 rats in each treatment group.
In the two-compartment model, the drug distributes into two compartments, the central compartment and the tissue, or peripheral compartment. The central compartment represents the blood, extracellular fluid, and highly perfused tissues. The drug distributes rapidly and uniformly in the central compartment. A second compartment, known as the tissue or peripheral compartment, contains tissues in which the drug equilibrates more slowly. Drug transfer between the two compartments is assumed to take place by first-order processes.
The following abbreviations are utilized in Table 4 below: alpha—macro rate constant associated with the distribution phase; beta—macro rate constant associated with the elimination phase; A, B—zero time intercept associated with the alpha phase and beta phase, respectively; AUC—area under the curve; T1/2 (K10)—half-life associated with the rate constant K10; K10—elimination rate—rate at which the drug leaves the system from the central compartment; K12—rate at which drug enters tissue compartment from the central compartment; K21—rate at which drug enters central compartment from tissue compartment; V1—volume of distribution of the central compartment; V2—volume of distribution of the tissue compartment; Vss—volume of distribution at steady state; and Cl—clearance.

[4] = Brain and plasma analysis of [3H]-(R,R)-methoxyfenoterol after IV administration; format: in vivo, male Sprague-Dawley rats; settings: rats, IV
Description: An overview of the research study design for evaluating the brain-to-plasma distribution of [^3H]
(specific activity 57 Ci/mmol); vehicle was sterile saline, 0.9% sodium chloride, USP. Dose formulations were prepared on the day of the study. The amount of radioactivity in the dose formulation was determined by liquid scintillation. The study lasted for an hour and radioactivity levels in plasma and brain tissue were evaluated at the conclusion of the study. Approximately 5 mls of whole blood was collected. Blood samples were collected via cardiac puncture, transferred into a tube containing K3EDTA as the anticoagulant and kept on wet ice until processed to plasma. To generate plasma, samples were centrifuged within 15 minutes of collection at 2,500 RPM for 15 minutes at room temperature. Plasma was divided equally into three labeled cryovials and stored on ample dry ice until transferred to a freezer set at ≤−20° C. for storage until analysis. Duplicate aliquots were weighed and then combined with scintillation cocktail. The [^3H] radioactivity was determined on a liquid scintillation counter. Brain samples were snap frozen in liquid nitrogen and stored at ≤−70° C. until analysis. Whole brain tissue was homogenized and the weight of the homogenate was determined. Duplicate aliquots from the homogenate were weighed, solubilized and then combined with scintillation cocktail. The [^3H] radioactivity was determined on a liquid scintillation counter.

[5] = tested on: 1321N1 xenograft; test: 1321N1 xenograft implanted in the flank of SKID mice; format: in vivo; settings: IP twice a day; day 3-10 30 mg/kg/day, day 10-42 50 mg/kg/day
[6] = tested on: rat cardiomyocyte; test: Rat cardiomyocyte contractility model; format: cell-based
[7] = tested on: 1321N1 cells; test: Inhibition of mitogenesis, [3H]-thymidine incorporation in 1321N1 cells; format: cell-based, human
[8] = Homo sapiens, 1321-N1, read-out: Mitogenesis Inhibition IC50

| SMILES | Plasma concentration, Average ([3]; 15 min) [ng/mL] | Plasma concentration, Average ([3]; 30 min) [ng/mL] | Plasma concentration, Average ([3]; 60 min) [ng/mL] | Plasma concentration, Average ([3]; 120 min) [ng/mL] | Plasma concentration, Average ([3]; 240 min) [ng/mL] | Plasma concentration, Average ([3]; 300 min) [ng/mL] | Plasma concentration, Average ([3]; 360 min) [ng/mL] | A (zero time intercept, alpha phase) [3] [µg/mL] | AUC [3] [µg·min/mL] | B (zero time intercept, beta phase) [3] [µg/mL] | Cl [3] [mL/min] | T1/2 (K10) [3] [min] | Vss [3] [mL] | systemic exposure (AUC) compared to (R,R)-fenoterol [3] | EC50 [6] [nM] | IC50 [7, 8] [nM] | further results |
| --- | --- | --- | --- | --- | --- | --- | --- | --- | --- | --- | --- | --- | --- | --- | --- | --- | --- |
| C[C@H](Cc1ccc(O)cc1)NC[C@H](O)c1cc(O)cc(O)c1 [(R,R)-1, (R,R)-(−)-Fenoterol] | 360 | 340 | 50 | 20 | 10 | 5 | 60 | 1.6300 | 29.6861 | 0.0577 | 51.54 | 12.19 | 1911.70 |  |  |  | lowest dose arresting the cell cycle [1]: 0.1 nM; phosphorylation of ERK1/2 [2]: only a modest effect; protein expression of cyclin A [2]: down-regulated; protein expression of cyclin D1 [2]: down-regulated; phosphorylation of Akt at Ser-473 ([2]; dose dependent, nanomolar concentrations): inhibited phosphorylation; protein levels of cyclin-dependent kinase inhibitor p27 ([2]; nanomolar concentrations): significantly increased; Individual plasma concentration ([3]; 15 min): 0.36 µg/mL; Individual plasma concentration ([3]; 30 min): 0.17 µg/mL and 0.50 µg/mL; Individual plasma concentration ([3]; 60 min): 0.05 µg/mL; Individual plasma concentration ([3]; 120 min): 0.03 µg/mL and 0.01 µg/mL; Individual plasma concentration ([3]; 300 min): 0.005 µg/mL; Individual plasma concentration ([3]; 360 min): 0.08 µg/mL and 0.03 µg/mL |
| COc1ccc(C[C@@H](C)NC[C@H](O)c2cc(O)cc(O)c2)cc1.O=C(O)/C=C/C(=O)O [(R,R)-2, (R,R)-(−)-1-p-Methoxyphenyl-2-(β-3′,5′-dihydroxy-phenyl-β-oxy)ethylamino-propane Fumarate] | 580 | 410 | 260 | 170 | 120 | 70 | 60 | 4.6437 | 96.1011 | 0.3900 |  |  |  | significantly higher |  |  | passage through the blood brain barrier [4]: capable of passing through the blood brain barrier; growth of 1321N1 xenograft [5]: inhibit growth; Individual plasma concentration ([3]; 300 min, listed as (R,R)-methoxyfenoterol): 0.06 ug/ml and 0.07 ug/ml (3×) and 0.09 ug/ml |
| COc1ccc(C[C@@H](NC[C@H](O)c2cc(O)cc(O)c2)C(C)C)cc1 [(R,R)-4-methoxy-isopropylfenoterol] |  |  |  |  |  |  |  |  |  |  |  |  |  |  | > 10000 |  | IC50 ([7]; [3H]-thymidine incorporation, 1321N1 cells, mean ± SD, n = 4, read-out: Mitogenesis Inhibition IC50): 946 nM |
| CC[C@H](Cc1ccc(O)cc1)NC[C@H](O)c1cc(O)cc(O)c1 [(R,R)-ethylfenoterol, (R,R)-(−)-ethylfenoterol] |  |  |  |  |  |  |  |  |  |  |  |  |  |  | 8550 | 1.44 |  |
| C[C@@H](Cc1cccc2ccccc12)NC[C@H](O)c1cc(O)cc(O)c1.O=C(O)/C=C/C(=O)O [(R,S)-5, (R,S)-(−)-5-{1-hydroxy-2-[1-methyl-2-(1-naphthyl)ethylamino]ethyl}-1,3-benzenediol fumarate] | 680 | 430 | 340 | 240 | 120 | 110 | 90 | 4.0365 | 116.88 | 0.4372 | 12.66 | 18.11 | 2203.75 | significantly higher |  |  | Individual plasma concentration ([3]; 5 min, listed as (R,S)-naphthylfenoterol, fumarate): 2.52 µg/mL and 2.10 µg/mL; Individual plasma concentration ([3]; 240 min, listed as (R,S)-naphthylfenoterol, fumarate): 0.11 ug/ml (3×) and 0.13 ug/ml (2×); Individual plasma concentration ([3]; 300 min, listed as (R,S)-naphthylfenoterol, fumarate): 0.10 ug/ml (2×) and 0.11 ug/ml (2×) and 0.12 ug/ml; Plasma concentration, Average ([3]; 5 min): 2110 ng/mL |
| CC[C@@H](Cc1ccc(O)cc1)NC[C@H](O)c1cc(O)cc(O)c1 [(R,S)-ethylfenoterol, (R,S)-(−)-ethylfenoterol] |  |  |  |  |  |  |  |  |  |  |  |  |  |  |  | 17.9 ± 4.56 |  |
